From ChEMBL document CHEMBL1134625 (J Med Chem, 2001)

What was measured:
[1] = biological target: 5-hydroxytryptamine receptor 2A (Homo sapiens, UniProt P28223)
[2] = biological target: T1, 5-hydroxytryptamine receptor 2C (Homo sapiens, UniProt P28335)
T1 sequence (P28335 whole entry): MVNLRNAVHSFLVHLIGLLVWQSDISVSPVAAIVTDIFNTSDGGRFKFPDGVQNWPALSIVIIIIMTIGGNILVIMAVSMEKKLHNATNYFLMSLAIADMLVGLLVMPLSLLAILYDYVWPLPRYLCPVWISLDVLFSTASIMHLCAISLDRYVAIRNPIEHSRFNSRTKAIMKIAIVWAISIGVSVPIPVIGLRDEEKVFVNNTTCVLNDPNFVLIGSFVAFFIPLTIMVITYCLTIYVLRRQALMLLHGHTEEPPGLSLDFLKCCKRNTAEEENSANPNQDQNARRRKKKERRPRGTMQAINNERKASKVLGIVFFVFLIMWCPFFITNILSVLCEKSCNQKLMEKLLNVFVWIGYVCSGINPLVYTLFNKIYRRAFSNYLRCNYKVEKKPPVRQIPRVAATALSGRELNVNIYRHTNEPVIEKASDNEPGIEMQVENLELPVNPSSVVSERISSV

[3] = biological target: Sodium-dependent dopamine transporter (Homo sapiens, UniProt Q01959)
[4] = biological target: D(2) dopamine receptor (Homo sapiens, UniProt P14416)
[5] = biological target: Vasopressin V1a receptor (Homo sapiens, UniProt P37288)
[6] = biological target: D(1B) dopamine receptor (Homo sapiens, UniProt P21918)
[7] = biological target: D(1A) dopamine receptor (Homo sapiens, UniProt P21728)
[8] = biological target: 5-hydroxytryptamine receptor 7 (Homo sapiens, UniProt P34969)
[9] = biological target: D(3) dopamine receptor (Homo sapiens, UniProt P35462)
[10] = biological target: 5-hydroxytryptamine receptor 1B (Homo sapiens, UniProt P28222)
[11] = biological target: T2, Adrenergic receptor alpha-1 (Homo sapiens, UniProt P35348+P25100+P35368); assay type: protein assay
T2 sequence (P35348 whole entry): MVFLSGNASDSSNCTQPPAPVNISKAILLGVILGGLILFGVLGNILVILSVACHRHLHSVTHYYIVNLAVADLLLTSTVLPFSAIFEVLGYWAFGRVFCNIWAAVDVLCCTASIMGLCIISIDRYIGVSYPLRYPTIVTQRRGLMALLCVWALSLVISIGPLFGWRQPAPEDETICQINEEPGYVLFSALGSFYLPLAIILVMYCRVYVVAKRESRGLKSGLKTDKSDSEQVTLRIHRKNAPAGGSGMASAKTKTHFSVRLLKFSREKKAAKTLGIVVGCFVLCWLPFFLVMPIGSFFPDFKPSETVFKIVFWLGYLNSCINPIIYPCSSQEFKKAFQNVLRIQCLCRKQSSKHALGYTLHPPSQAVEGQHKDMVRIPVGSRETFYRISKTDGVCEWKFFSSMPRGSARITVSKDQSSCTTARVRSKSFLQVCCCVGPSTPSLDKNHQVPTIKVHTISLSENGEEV
T2 sequence (P25100 whole entry): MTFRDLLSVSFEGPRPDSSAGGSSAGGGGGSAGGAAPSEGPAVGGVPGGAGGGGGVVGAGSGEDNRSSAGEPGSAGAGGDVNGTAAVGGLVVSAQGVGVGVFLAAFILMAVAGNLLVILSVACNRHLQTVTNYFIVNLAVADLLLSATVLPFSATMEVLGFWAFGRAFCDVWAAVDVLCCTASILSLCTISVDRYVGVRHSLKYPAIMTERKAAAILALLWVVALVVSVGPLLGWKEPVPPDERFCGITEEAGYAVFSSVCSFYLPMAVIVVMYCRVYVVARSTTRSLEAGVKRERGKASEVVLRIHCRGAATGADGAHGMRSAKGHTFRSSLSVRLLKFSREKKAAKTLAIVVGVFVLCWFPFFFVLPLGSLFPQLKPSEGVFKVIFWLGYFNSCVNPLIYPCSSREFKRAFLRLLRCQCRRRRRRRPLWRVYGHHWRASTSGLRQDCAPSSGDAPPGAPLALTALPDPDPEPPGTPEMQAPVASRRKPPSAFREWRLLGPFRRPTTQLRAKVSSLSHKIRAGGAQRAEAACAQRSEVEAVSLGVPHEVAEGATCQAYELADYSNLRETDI
T2 sequence (P35368 whole entry): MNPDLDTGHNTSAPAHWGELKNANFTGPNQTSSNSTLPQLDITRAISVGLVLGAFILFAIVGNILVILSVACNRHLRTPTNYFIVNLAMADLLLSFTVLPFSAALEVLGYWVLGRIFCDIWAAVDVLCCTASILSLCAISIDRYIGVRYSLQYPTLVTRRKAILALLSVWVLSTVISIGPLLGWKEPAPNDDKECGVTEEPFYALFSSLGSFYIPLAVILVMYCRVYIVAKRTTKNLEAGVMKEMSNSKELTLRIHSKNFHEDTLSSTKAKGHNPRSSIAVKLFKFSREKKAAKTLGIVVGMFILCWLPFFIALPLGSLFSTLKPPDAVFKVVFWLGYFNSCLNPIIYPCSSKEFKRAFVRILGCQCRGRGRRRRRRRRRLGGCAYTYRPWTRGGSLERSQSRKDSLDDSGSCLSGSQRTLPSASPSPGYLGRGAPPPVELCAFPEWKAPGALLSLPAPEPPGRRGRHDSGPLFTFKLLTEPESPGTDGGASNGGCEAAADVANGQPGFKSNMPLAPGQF

[12] = biological target: 5-hydroxytryptamine receptor 6 (Homo sapiens, UniProt P50406)
[13] = biological target: Histamine H1 receptor (Homo sapiens, UniProt P35367)
[14] = biological target: T3, 5-hydroxytryptamine receptor 1A (Homo sapiens, UniProt P08908)
T3 sequence (P08908 whole entry): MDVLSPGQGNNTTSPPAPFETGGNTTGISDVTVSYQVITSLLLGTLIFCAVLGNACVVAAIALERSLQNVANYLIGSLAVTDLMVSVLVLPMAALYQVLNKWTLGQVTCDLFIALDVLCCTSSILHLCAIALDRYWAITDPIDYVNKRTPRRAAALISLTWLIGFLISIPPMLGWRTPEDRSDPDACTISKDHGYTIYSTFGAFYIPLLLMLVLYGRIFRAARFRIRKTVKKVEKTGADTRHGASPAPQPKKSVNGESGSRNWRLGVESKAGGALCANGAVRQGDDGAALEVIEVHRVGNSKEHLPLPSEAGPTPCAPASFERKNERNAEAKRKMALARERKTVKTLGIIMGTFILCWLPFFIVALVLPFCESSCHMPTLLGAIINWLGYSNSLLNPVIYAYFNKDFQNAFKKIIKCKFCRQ

5-hydroxytryptamine receptor 1B, sequence (P28222 whole entry): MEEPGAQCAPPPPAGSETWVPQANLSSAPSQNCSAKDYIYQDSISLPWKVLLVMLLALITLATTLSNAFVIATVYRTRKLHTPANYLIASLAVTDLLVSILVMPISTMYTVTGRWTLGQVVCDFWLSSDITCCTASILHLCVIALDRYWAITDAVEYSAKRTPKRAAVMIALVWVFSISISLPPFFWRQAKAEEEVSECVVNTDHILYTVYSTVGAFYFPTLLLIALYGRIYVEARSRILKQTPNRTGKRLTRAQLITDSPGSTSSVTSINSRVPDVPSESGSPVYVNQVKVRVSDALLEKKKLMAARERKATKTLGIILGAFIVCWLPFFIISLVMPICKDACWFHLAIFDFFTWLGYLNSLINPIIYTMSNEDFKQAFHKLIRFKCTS
D(1A) dopamine receptor, sequence (P21728 whole entry): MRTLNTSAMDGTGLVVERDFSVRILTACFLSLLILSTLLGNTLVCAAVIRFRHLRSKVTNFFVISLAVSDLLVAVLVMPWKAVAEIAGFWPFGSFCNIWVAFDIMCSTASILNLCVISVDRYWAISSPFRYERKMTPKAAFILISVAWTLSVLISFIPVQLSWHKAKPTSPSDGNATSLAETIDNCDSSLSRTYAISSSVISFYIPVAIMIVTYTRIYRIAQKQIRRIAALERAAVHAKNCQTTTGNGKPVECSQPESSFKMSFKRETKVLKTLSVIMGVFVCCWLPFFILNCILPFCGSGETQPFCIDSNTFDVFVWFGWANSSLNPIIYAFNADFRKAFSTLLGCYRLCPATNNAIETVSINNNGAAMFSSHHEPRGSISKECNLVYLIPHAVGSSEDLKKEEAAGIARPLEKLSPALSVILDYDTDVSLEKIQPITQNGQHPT
D(2) dopamine receptor, sequence (P14416 whole entry): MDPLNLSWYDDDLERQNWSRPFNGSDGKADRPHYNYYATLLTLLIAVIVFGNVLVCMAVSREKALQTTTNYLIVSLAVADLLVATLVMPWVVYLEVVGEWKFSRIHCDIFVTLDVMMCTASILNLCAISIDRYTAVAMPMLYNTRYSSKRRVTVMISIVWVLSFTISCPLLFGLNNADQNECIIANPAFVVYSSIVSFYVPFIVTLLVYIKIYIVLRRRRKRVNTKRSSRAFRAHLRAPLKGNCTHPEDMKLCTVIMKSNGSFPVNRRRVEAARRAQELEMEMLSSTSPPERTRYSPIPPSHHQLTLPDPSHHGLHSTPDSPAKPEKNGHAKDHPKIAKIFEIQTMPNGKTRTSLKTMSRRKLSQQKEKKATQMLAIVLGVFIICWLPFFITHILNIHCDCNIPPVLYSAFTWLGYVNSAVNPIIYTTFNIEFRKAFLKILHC
Histamine H1 receptor, sequence (P35367 whole entry): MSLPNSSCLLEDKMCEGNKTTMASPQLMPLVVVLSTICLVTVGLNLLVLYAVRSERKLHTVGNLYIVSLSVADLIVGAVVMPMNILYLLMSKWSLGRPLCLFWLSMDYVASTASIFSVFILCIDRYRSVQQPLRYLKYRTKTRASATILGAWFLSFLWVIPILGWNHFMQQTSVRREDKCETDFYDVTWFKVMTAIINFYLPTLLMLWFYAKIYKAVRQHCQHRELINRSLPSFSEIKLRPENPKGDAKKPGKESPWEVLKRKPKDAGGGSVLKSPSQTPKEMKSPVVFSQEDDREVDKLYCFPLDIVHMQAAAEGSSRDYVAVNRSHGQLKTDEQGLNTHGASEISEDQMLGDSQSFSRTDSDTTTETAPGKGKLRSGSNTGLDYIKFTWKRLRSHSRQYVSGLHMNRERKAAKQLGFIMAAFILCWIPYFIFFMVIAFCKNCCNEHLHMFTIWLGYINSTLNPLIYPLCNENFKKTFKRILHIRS
5-hydroxytryptamine receptor 6, sequence (P50406 whole entry): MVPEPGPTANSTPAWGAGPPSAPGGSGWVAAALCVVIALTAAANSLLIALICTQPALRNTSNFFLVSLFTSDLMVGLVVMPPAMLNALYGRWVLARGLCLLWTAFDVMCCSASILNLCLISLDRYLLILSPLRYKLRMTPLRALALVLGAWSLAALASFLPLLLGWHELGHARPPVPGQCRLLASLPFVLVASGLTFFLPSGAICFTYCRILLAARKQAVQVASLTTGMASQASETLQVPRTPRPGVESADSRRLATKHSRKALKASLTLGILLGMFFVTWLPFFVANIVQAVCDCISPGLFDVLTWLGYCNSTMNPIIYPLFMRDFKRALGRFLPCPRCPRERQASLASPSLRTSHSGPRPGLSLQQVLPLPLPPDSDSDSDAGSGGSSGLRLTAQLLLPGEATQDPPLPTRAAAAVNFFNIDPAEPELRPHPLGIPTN
5-hydroxytryptamine receptor 7, sequence (P34969 whole entry): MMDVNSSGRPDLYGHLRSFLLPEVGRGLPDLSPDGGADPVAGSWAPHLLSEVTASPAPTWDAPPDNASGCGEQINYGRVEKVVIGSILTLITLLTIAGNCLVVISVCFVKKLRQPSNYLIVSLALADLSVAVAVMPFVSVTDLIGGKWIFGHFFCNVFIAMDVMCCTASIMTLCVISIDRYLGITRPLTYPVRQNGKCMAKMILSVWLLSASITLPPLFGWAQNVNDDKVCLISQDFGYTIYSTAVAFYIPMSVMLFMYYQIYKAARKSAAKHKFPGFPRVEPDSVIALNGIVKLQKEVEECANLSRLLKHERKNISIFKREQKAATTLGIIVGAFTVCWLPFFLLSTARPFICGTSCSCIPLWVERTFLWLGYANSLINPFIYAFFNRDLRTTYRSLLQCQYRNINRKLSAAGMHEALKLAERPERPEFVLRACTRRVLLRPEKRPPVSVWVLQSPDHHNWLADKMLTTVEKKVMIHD
D(3) dopamine receptor, sequence (P35462 whole entry): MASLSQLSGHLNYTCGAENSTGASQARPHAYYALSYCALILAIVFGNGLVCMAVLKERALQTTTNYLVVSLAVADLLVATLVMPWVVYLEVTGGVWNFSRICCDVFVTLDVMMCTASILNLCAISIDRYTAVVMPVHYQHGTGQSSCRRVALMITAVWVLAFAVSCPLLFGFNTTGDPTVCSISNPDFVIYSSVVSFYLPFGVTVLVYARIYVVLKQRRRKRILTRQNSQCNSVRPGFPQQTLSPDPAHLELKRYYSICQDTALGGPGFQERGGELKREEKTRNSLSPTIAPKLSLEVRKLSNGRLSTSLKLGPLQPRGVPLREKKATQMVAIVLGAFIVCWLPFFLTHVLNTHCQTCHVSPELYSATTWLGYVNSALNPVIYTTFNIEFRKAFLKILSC
Vasopressin V1a receptor, sequence (P37288 whole entry): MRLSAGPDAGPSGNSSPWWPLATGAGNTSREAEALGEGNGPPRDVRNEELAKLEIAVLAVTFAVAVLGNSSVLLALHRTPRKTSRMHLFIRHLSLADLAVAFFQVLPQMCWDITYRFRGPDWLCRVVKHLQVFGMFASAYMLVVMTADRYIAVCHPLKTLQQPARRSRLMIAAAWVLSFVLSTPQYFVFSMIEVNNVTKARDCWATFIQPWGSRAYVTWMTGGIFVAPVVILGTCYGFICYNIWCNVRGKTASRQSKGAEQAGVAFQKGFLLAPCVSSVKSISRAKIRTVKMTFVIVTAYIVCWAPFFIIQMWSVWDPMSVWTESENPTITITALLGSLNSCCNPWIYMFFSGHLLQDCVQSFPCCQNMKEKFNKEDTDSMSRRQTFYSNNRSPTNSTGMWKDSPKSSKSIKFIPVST
Sodium-dependent dopamine transporter, sequence (Q01959 whole entry): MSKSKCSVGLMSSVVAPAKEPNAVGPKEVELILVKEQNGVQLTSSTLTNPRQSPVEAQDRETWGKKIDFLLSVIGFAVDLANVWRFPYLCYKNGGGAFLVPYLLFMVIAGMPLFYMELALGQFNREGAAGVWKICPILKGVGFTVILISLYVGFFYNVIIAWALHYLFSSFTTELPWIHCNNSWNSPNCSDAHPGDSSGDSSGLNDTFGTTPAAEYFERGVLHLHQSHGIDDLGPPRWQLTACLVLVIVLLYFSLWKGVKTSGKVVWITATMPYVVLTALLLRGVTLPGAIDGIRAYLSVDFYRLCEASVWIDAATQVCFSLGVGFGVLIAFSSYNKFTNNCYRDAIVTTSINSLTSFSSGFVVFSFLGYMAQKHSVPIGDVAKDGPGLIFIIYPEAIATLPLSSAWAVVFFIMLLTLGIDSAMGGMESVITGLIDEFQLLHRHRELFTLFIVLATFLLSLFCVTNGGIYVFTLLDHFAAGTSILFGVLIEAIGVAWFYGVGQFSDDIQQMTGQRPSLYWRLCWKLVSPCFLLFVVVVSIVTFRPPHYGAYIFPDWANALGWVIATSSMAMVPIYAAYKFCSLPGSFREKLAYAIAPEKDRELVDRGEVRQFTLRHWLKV
5-hydroxytryptamine receptor 2A, sequence (P28223 whole entry): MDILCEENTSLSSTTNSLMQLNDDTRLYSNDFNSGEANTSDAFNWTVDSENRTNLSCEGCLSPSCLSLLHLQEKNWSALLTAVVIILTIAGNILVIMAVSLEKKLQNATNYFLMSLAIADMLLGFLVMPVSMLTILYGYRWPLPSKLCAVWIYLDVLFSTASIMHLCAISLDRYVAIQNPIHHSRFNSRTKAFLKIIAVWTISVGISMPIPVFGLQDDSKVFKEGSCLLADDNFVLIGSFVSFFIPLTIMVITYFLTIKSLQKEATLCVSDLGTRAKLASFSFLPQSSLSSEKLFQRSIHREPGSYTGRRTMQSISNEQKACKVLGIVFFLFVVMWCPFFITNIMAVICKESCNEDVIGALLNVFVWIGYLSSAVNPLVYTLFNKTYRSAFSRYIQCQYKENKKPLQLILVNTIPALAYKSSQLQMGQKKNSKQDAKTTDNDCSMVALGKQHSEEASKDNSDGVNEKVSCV

SMILES: N#Cc1ccc(CCOC(=O)NC2CCN(CCCC(c3ccc(F)cc3)c3ccc(F)cc3)CC2)cc1
- IC50 [1]: 683 nM
- IC50 [2]: 2760 nM
- IC50 [3]: 781 nM
- IC50 [4]: 551 nM
- IC50 [5]: 3650 nM
- IC50 [6]: 513 nM
- IC50 [7]: 376 nM
- IC50 [8]: 998 nM
- IC50 [9]: 538 nM
- IC50 [10]: 3580 nM
- IC50 [11]: 417 nM
- IC50 [12]: 427 nM
- IC50 [13]: 454 nM
- IC50 [14]: 985 nM
